`N#Cc1cc(Oc2ccc(NC(=O)Nc3cc4ccccc4cn3)cc2)ccn1` [Entry 159, {[4-(2-cyano(4-pyridyloxy))phenyl]amino}-N-(3-isoquinolyl)carboxamide]: the melting point lay in the range of 208 to 212 °C.

Consider `N#Cc1cc(Oc2ccc(NC(=O)Nc3cc(C(F)(F)F)ccn3)c(C(F)(F)F)c2)ccn1` [Entry 150, {[4-(2-cyano(4-pyridyloxy))-2-(trifluoromethyl)phenyl]amino}-N-[4-(trifluoromethyl)(2-pyridyl)]carboxamide], for which the melting point is 209 to 210.5 °C.

For the compound `N#Cc1cc(Oc2ccc(NC(=O)Nc3ccc4c(c3)C(F)(F)OC(F)(F)O4)c(F)c2)ccn1` [Entry 124, {[4-(2-cyano(4-pyridyloxy))-2-fluorophenyl]amino}-N-(2,2,4,4-tetrafluorobenzo[3,4-e]1,3-dioxan-6-yl)carboxamide], the melting point was in the range of 169 to 171 °C.

As for `N#Cc1cc(Oc2ccc(NC(=O)Nc3ccc4c(c3)C(F)(F)OC(F)(F)O4)cc2F)ccn1` [Entry 127, {[4-(2-cyano(4-pyridyloxy))-3-fluorophenyl]amino}-N-(2,2,4,4-tetrafluorobenzo[3,4-e]1,3-dioxan-6-yl)carboxamide], the melting point was in the range of 196 to 199.5 °C.

In the case of `N#Cc1cc(Oc2ccc(NC(=O)Nc3ccnc(C(F)(F)F)c3)c(F)c2)ccn1` [Entry 142, {[4-(2-cyano(4-pyridyloxy))-2-fluorophenyl]amino}-N-[2-(trifluoromethyl)(4-pyridyl)]carboxamide], the melting point was 192 to 193 °C.

In turn, `N#Cc1cc(Oc2ccc(NC(=O)Nc3ccc4c(c3)OC(F)(F)O4)cc2F)ccn1` [Entry 113, N-(2,2-difluorobenzo[d]1,3-dioxolan-5-yl){[4-(2-cyano(4-pyridyloxy))-3-fluorophenyl]amino}carboxamide] showed a melting point of 193.5 to 194.5 °C.

In turn, `N#Cc1cc(Oc2ccc(NC(=O)Nc3ccc4c(c3)C(F)(F)OC(F)(F)O4)c(F)c2F)ccn1` [Entry 129, {[4-(2-cyano(4-pyridyloxy))-2,3-difluorophenyl]amino}-N-(2,2,4,4-tetrafluorobenzo[3,4-e]1,3-dioxan-6-yl)carboxamide] gave a melting point of 181 to 182 °C.

Take `N#Cc1cc(Oc2ccc(NC(=O)Nc3cc4ccccc4cn3)c(F)c2)ccn1` [Entry 160, {[4-(2-cyano(4-pyridyloxy))-2-fluorophenyl]amino}-N-(3-isoquinolyl)carboxamide]: the melting point is 218 to 220 °C.

`CC(C)(C)c1ccnc(NC(=O)Nc2ccc(Oc3ccnc(C#N)c3)cc2)c1` [Entry 143, N-[4-(tert-butyl)(2-pyridyl)]{[4-(2-cyano(4-pyridyloxy))phenyl]amino}carboxamide] displayed a melting point of 216 to 217 °C.

In turn, `CSc1cc(Oc2ccnc(C#N)c2)ccc1NC(=O)Nc1ccc2c(c1)C(F)(F)OC(F)(F)O2` [Entry 140, {[4-(2-cyano(4-pyridyl)oxy)-2-methylthiophenyl]amino}-N-(2,2,4,4-tetrafluorobenzo[3,4-e]1,3-dioxan-6-yl)carboxamide] had a melting point of 183 to 185 °C.

Consider `Cn1ncc2cc(NC(=O)Nc3ccc(Oc4ccnc(C#N)c4)cc3C(F)(F)F)ccc21` [Entry 165, {[4-(2-cyano(4-pyridyloxy))-2-(trifluoromethyl)phenyl]amino}-N-(1-methyl(1H-indazol-5-yl))carboxamide], for which the melting point is 239 to 240 °C.

As for `N#Cc1cc(Oc2ccc(NC(=O)Nc3ccc4c(c3)C(F)(F)OC(F)(F)O4)c(C(F)(F)F)c2)ccn1` [Entry 128, {[4-(2-cyano(4-pyridyloxy))-2-(trifluoromethyl)phenyl]amino}-N-(2,2,4,4-tetrafluorobenzo[3,4-e]1,3-dioxan-6-yl)carboxamide], the melting point lay in the range of 220 to 221 °C.

For the compound `CCc1ccnc(NC(=O)Nc2ccc(Oc3ccnc(C#N)c3)cc2)c1` [Entry 153, {[4-(2-cyano(4-pyridyloxy))phenyl]amino}-N-(4-ethyl(2-pyridyl))carboxamide], the melting point fell in the range of 209 to 210 °C.

Turning to `Cc1ccc2cc(NC(=O)Nc3ccc(Oc4ccnc(C#N)c4)cc3)ccc2n1` [Entry 154, {[4-(2-cyano(4-pyridyloxy))phenyl]amino}-N-(2-methyl(6-quinolyl))carboxamide], the melting point was 245.5 °C.

Take `CS(=O)(=O)c1cc(Oc2ccnc(C#N)c2)ccc1NC(=O)Nc1ccc2c(c1)C(F)(F)OC(F)(F)O2` [Entry 141, {[4-(2-cyano(4-pyridyl)oxy)-2-(methylsulfonyl)phenyl]amino}-N-(2,2,4,4-tetrafluorobenzo[3,4-e]1,3-dioxan-6-yl)carboxamide]: the melting point lay in the range of 229 to 230 °C.

On to `N#Cc1cc(Oc2ccc(NC(=O)Nc3ccc4c(c3)OC(F)(F)O4)cc2)ccn1` [Entry 109, N-(2,2-difluorobenzo[d]1,3-dioxolan-5-yl){[4-(2-cyano(4-pyridyloxy))phenyl]amino}carboxamide], for which the melting point is 199 to 200 °C.

As for `N#Cc1cc(Oc2ccc(NC(=O)Nc3cc(C(F)(F)F)ccn3)cc2)ccn1` [Entry 152, {[4-(2-cyano(4-pyridyloxy))phenyl]amino}-N-[4-(trifluoromethyl)(2-pyridyl)]carboxamide], the melting point came out at 202 °C.

A word on the melting point: it is the temperature of the solid-liquid transition.

The values above are taken from patent US7557129B2, “Cyanopyridine derivatives useful in the treatment of cancer and other disorders” (Bayer Healthcare LLC, priority 2003, dated 2009).
